Experimental data published in patent publication US9695155B2, “Herbicidal substituted pyrimidinyloxy benzene compounds” (E. I. DU PONT DE NEMOURS AND COMPANY, priority 2013, dated 2017).

Legend:
johnsongrass = assay: Test C preemergence; format: in vivo, Sorghum halepense
Outline: (§1)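 Sown in loam/sand → sprayed pre-emergence; or grown to 1–4 leaves in peat mix → sprayed post-emergence. Same solvent/surfactant formulation both ways. Greenhouse 13–15 d. Score 0–100 visual.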

pigweed = assay: Test A preemergence; format: in vivo, Amaranthus retroflexus
Outline: (§2)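 Scoring: eye-based comparison with untreated controls, 0 for no effect through 100 for complete control, at about day 10. Treatments: directed soil spray preemergence; foliar spray postemergence on 2–10 cm plants at the one- to two-leaf stage. Medium: loam soil with sand.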

wheat = assay: Test A postemergence; format: in vivo, Triticum aestivum
Outline: as §2

soybean = assay: Test C preemergence; format: in vivo, Glycine max
Outline: as §1

giant foxtail = assay: Test C preemergence; format: in vivo, Setaria faberii
Outline: as §1

waterhemp = assay: Test C preemergence; format: in vivo, Amaranthus rudis
Text: Seeds of plant species selected from blackgrass (Alopecurus myosuroides), Italian ryegrass (Lolium multiflorum), wheat, winter (winter wheat, Triticum aestivum), galium (catchweed bedstraw, Galium aparine), corn (Zea mays), large (Lg) crabgrass (Digitaria sanguinalis), giant foxtail (Setaria faberii), johnsongrass (Sorghum halepense), lambsquarters (Chenopodium album), morningglory (Ipomoea coccinea), yellow nutsedge (Cyperus esculentus), pigweed (Amaranthus retroflexus), ragweed (common ragweed, Ambrosia elatior), soybean (Glycine max), barnyardgrass (Echinochloa crus-galli), oilseed rape (Brassica napus), waterhemp (common waterhemp, Amaranthus rudis), kochia (Kochia scoparia), wild oat (Avena fatua), surinam grass (Brachiaria decumbens), foxtail, green (green foxtail, Setaria viridis), goosegrass (Eleusine indica), bromegrass, downy (downy bromegrass, Bromus tectorum), nightshade (eastern black nightshade, Solanum ptycanthum), cocklebur (common cocklebur, Xanthium strumarium), cupgrass, woolly (woolly cupgrass, Eriochloa villosa), bermudagrass (Cynodon dactylon), sunflower, (common oilseed sunflower, Helianthus annuus), Russian thistle (Salsola kali), and velvetleaf (Abutilon theophrasti) were planted into a blend of loam soil and sand and treated preemergence with test chemicals formulated in a non-phytotoxic solvent mixture which included a surfactant.
At the same time, plants selected from these crop and weed species and also barley, winter (winter barley, Hordeum vulgare), windgrass (Apera spica-venti), chickweed (common chickweed, Stellaria media), deadnettle (henbit deadnettle, Lamium amplexicaule), and canarygrass (littleseed canarygrass, Phalaris minor) were planted in pots containing Redi-Earth® planting medium (Scotts Company, 14111 Scottslawn Road, Marysville, Ohio 43041) comprising spaghnum peat moss, vermiculite, wetting agent and starter nutrients and treated with postemergence applications of test chemicals formulated in the same manner. Plants ranged in height from 2 to 18 cm (1- to 4-leaf stage) for postemergence treatments. Treated plants and controls were maintained in a greenhouse for 13 to 15 days, after which time all species were compared to controls and visually evaluated. Plant response ratings, summarized in Table C, are based on a scale of 0 to 100 where 0 is no effect and 100 is complete control. A dash (-) response means no test result.

corn = assay: Test A postemergence; format: in vivo, Zea mays
Outline: as §2

ragweed = assay: Test C preemergence; format: in vivo, Ambrosia elatior
Outline: as §1

[1] = 16 g ai/ha, preemergence, scale 0 to 100 (0 no effect, 100 complete control)
[2] = 125 g ai/ha, preemergence, scale 0 (no effect) to 100 (complete control)
[3] = Preemergence, 62 g ai/ha, scale 0 to 100, 0 no effect, 100 complete control
[4] = 31 g ai/ha, 0 to 100 scale where 0 is no effect and 100 is complete control, visual, approximately 10 days
[5] = 31 g ai/ha, 0 to 100 scale, 0 no effect, 100 complete control
[6] = 125 g ai/ha, 0 to 100 scale, 0 no effect, 100 complete control
[7] = 62 g ai/ha, preemergence, scale 0 (no effect) to 100 (complete control)
[8] = 125 g ai/ha, 0 to 100 scale where 0 is no effect and 100 is complete control
[9] = 500 g ai/ha, 0 to 100 scale where 0 is no effect and 100 is complete control
[10] = Preemergence, 31 g ai/ha, scale 0 to 100, 0 no effect, 100 complete control

## FCc1cccc(Oc2ncc(Cl)cn2)c1-n1cc(Cl)cn1 [Compound 250]
johnsongrass; [1]
  Johnsongrass plant response rating: 0
johnsongrass; [2]
  Johnsongrass plant response rating: 70
johnsongrass; [3]
  Plant response rating, Johnsongrass: 35
pigweed; [4]
  Plant response rating, Pigweed: 80
pigweed; 125 g ai/ha
  Pigweed plant response rating (0 to 100 scale): 100
wheat; [5]
  Plant response rating, Wheat: 0
wheat; [6]
  Plant response rating, Wheat: 0
soybean; [2]
  Soybean plant response rating: 90
soybean; [3]
  Plant response rating, Soybean: 65
Giant foxtail; [1]
  Foxtail, Giant plant response rating: 5
Giant foxtail; [2]
  Foxtail, Giant plant response rating: 100
Giant foxtail; [3]
  Plant response rating, Foxtail, Giant: 100
waterhemp; [1]
  Waterhemp plant response rating: 85
waterhemp; [2]
  Waterhemp plant response rating: 100
waterhemp; [3]
  Plant response rating, Waterhemp: 100
corn; [5]
  Plant response rating, Corn: 10
corn; [6]
  Plant response rating, Corn: 30
ragweed; [1]
  Ragweed plant response rating: 15
ragweed; [2]
  Ragweed plant response rating: 75
ragweed; [3]
  Plant response rating, Ragweed: 40

## COc1cnn(-c2c(C#N)cccc2Oc2ncc(Cl)cn2)c1 [Compound 137]
johnsongrass; [1]
  Johnsongrass plant response rating: 0
johnsongrass; [7]
  Johnsongrass plant response rating: 5
johnsongrass; [2]
  Johnsongrass plant response rating: 45
pigweed; [8]
  Plant response rating, Pigweed: 90
pigweed; [9]
  Pigweed plant response rating: 100
wheat; [8]
  Wheat plant response rating: 30
wheat; [9]
  Plant response rating, Wheat: 70
soybean; [1]
  Soybean plant response rating: 10
soybean; [7]
  Soybean plant response rating: 80
soybean; [2]
  Soybean plant response rating: 85
Giant foxtail; [1]
  Foxtail, Giant plant response rating: 35
Giant foxtail; [7]
  Foxtail, Giant plant response rating: 60
Giant foxtail; [2]
  Foxtail, Giant plant response rating: 90
Giant foxtail; [10]
  Plant response rating, Foxtail, Giant: 5
waterhemp; [1]
  Waterhemp plant response rating: 100
waterhemp; [7]
  Waterhemp plant response rating: 95
waterhemp; [2]
  Waterhemp plant response rating: 100
corn; [8]
  Corn plant response rating: 30
corn; [9]
  Plant response rating, Corn: 80
ragweed; [1]
  Ragweed plant response rating: 45
ragweed; [7]
  Ragweed plant response rating: 80
ragweed; [2]
  Ragweed plant response rating: 95

## N#Cc1cccc(Oc2ncc(Cl)cn2)c1-n1cnc(C(F)(F)F)c1 [Compound 252, 3-[(5-chloro-2-pyrimidinyl)oxy]-2-[4-(trifluoromethyl)-1H-imidazol-1-yl]benzonitrile]
johnsongrass; Sorghum halepense, pre-emergence, 16 g ai/ha, preemergence, scale 0 to 100 (0 no effect, 100 complete control), read-out: Johnsongrass plant response rating
  pest or weed control at 16 g/ha: 5%
johnsongrass; Sorghum halepense, pre-emergence, 125 g ai/ha, preemergence, scale 0 (no effect) to 100 (complete control), read-out: Johnsongrass plant response rating
  pest or weed control at 125 g/ha: 100%
johnsongrass; Sorghum halepense, pre-emergence, Preemergence, 62 g ai/ha, scale 0 to 100, 0 no effect, 100 complete control, read-out: Plant response rating, Johnsongrass
  pest or weed control at 62 g/ha: 80%
pigweed; 125 g ai/ha
  Pigweed plant response rating (0 to 100 scale): 100
pigweed; Amaranthus retroflexus, pre-emergence, 240 h, 31 g ai/ha, 0 to 100 scale where 0 is no effect and 100 is complete control, visual, approximately 10 days, read-out: Plant response rating, Pigweed
  pest or weed control at 31 g/ha: 100%
pigweed; Amaranthus retroflexus, pre-emergence, 240 h, 500 g ai/ha, 0 to 100 scale where 0 is no effect and 100 is complete control, read-out: Pigweed plant response rating
  pest or weed control at 500 g/ha: 100%
wheat; Triticum aestivum, post-emergence, 240 h, 31 g ai/ha, 0 to 100 scale, 0 no effect, 100 complete control, read-out: Plant response rating, Wheat
  plant injury at 31 g/ha: 20%
wheat; Triticum aestivum, post-emergence, 240 h, 125 g ai/ha, 0 to 100 scale, 0 no effect, 100 complete control, read-out: Plant response rating, Wheat
  plant injury at 125 g/ha: 30%
wheat; Triticum aestivum, post-emergence, 240 h, 500 g ai/ha, 0 to 100 scale where 0 is no effect and 100 is complete control, read-out: Plant response rating, Wheat
  plant injury at 500 g/ha: 90%
soybean; Glycine max, pre-emergence, 16 g ai/ha, preemergence, scale 0 to 100 (0 no effect, 100 complete control), read-out: Soybean plant response rating
  plant injury at 16 g/ha: 65%
soybean; Glycine max, pre-emergence, 125 g ai/ha, preemergence, scale 0 (no effect) to 100 (complete control), read-out: Soybean plant response rating
  plant injury at 125 g/ha: 98%
soybean; Glycine max, pre-emergence, Preemergence, 62 g ai/ha, scale 0 to 100, 0 no effect, 100 complete control, read-out: Plant response rating, Soybean
  plant injury at 62 g/ha: 95%
Giant foxtail; Setaria faberi, pre-emergence, 16 g ai/ha, preemergence, scale 0 to 100 (0 no effect, 100 complete control), read-out: Foxtail, Giant plant response rating
  pest or weed control at 16 g/ha: 35%
Giant foxtail; Setaria faberi, pre-emergence, 125 g ai/ha, preemergence, scale 0 (no effect) to 100 (complete control), read-out: Foxtail, Giant plant response rating
  pest or weed control at 125 g/ha: 100%
Giant foxtail; Setaria faberi, pre-emergence, Preemergence, 62 g ai/ha, scale 0 to 100, 0 no effect, 100 complete control, read-out: Plant response rating, Foxtail, Giant
  pest or weed control at 62 g/ha: 100%
waterhemp; Amaranthus tuberculatus, pre-emergence, 16 g ai/ha, preemergence, scale 0 to 100 (0 no effect, 100 complete control), read-out: Waterhemp plant response rating
  pest or weed control at 16 g/ha: 100%
waterhemp; Amaranthus tuberculatus, pre-emergence, 125 g ai/ha, preemergence, scale 0 (no effect) to 100 (complete control), read-out: Waterhemp plant response rating
  pest or weed control at 125 g/ha: 100%
waterhemp; Amaranthus tuberculatus, pre-emergence, Preemergence, 62 g ai/ha, scale 0 to 100, 0 no effect, 100 complete control, read-out: Plant response rating, Waterhemp
  pest or weed control at 62 g/ha: 100%
corn; Zea mays, post-emergence, 240 h, 31 g ai/ha, 0 to 100 scale, 0 no effect, 100 complete control
  Corn plant response rating (crop injury, 0 = no effect, 100 = complete kill) at 31 g/ha: 20%
corn; Zea mays, post-emergence, 240 h, 125 g ai/ha, 0 to 100 scale, 0 no effect, 100 complete control
  Corn plant response rating (crop injury, 0 = no effect, 100 = complete kill) at 125 g/ha: 60%
corn; Zea mays, post-emergence, 240 h, 500 g ai/ha, 0 to 100 scale where 0 is no effect and 100 is complete control
  Corn plant response rating (crop injury, 0 = no effect, 100 = complete kill) at 500 g/ha: 90%
ragweed; Ambrosia artemisiifolia, pre-emergence, 16 g ai/ha, preemergence, scale 0 to 100 (0 no effect, 100 complete control), read-out: Ragweed plant response rating
  pest or weed control at 16 g/ha: 40%
ragweed; Ambrosia artemisiifolia, pre-emergence, 125 g ai/ha, preemergence, scale 0 (no effect) to 100 (complete control), read-out: Ragweed plant response rating
  pest or weed control at 125 g/ha: 100%
ragweed; Ambrosia artemisiifolia, pre-emergence, Preemergence, 62 g ai/ha, scale 0 to 100, 0 no effect, 100 complete control, read-out: Plant response rating, Ragweed
  pest or weed control at 62 g/ha: 98%

## Fc1cccc(Oc2ncc(Cl)cn2)c1-n1cc(OCC(F)(F)F)cn1 [Compound 270]
johnsongrass; [1]
  Johnsongrass plant response rating: 0
johnsongrass; [2]
  Johnsongrass plant response rating: 95
johnsongrass; [3]
  Plant response rating, Johnsongrass: 40
pigweed; [4]
  Plant response rating, Pigweed: 100
pigweed; 125 g ai/ha
  Pigweed plant response rating (0 to 100 scale): 100
wheat; [5]
  Plant response rating, Wheat: 0
wheat; [6]
  Plant response rating, Wheat: 30
soybean; [1]
  Soybean plant response rating: 0
soybean; [2]
  Soybean plant response rating: 85
soybean; [3]
  Plant response rating, Soybean: 25
Giant foxtail; [1]
  Foxtail, Giant plant response rating: 5
Giant foxtail; [2]
  Foxtail, Giant plant response rating: 100
Giant foxtail; [3]
  Plant response rating, Foxtail, Giant: 100
waterhemp; [1]
  Waterhemp plant response rating: 80
waterhemp; [2]
  Waterhemp plant response rating: 100
waterhemp; [3]
  Plant response rating, Waterhemp: 100
corn; [5]
  Plant response rating, Corn: 20
corn; [6]
  Plant response rating, Corn: 50
ragweed; [1]
  Ragweed plant response rating: 0
ragweed; [2]
  Ragweed plant response rating: 70
ragweed; [3]
  Plant response rating, Ragweed: 45

## FCc1cccc(Oc2ncc(F)cn2)c1-n1cc(C(F)(F)F)cn1 [Compound 118]
johnsongrass; [1]
  Johnsongrass plant response rating: 0
johnsongrass; [7]
  Johnsongrass plant response rating: 85
johnsongrass; [2]
  Johnsongrass plant response rating: 100
johnsongrass; [10]
  Plant response rating, Johnsongrass: 25
pigweed; 31 g ai/ha
  Pigweed plant response rating (0 to 100 scale): 100
pigweed; [8]
  Plant response rating, Pigweed: 100
wheat; [5]
  Plant response rating, Wheat: 20
soybean; [1]
  Soybean plant response rating: 60
soybean; [7]
  Soybean plant response rating: 90
soybean; [2]
  Soybean plant response rating: 95
soybean; [10]
  Plant response rating, Soybean: 75
Giant foxtail; [1]
  Foxtail, Giant plant response rating: 25
Giant foxtail; [7]
  Foxtail, Giant plant response rating: 95
Giant foxtail; [2]
  Foxtail, Giant plant response rating: 100
Giant foxtail; [10]
  Plant response rating, Foxtail, Giant: 75
waterhemp; [1]
  Waterhemp plant response rating: 85
waterhemp; [7]
  Waterhemp plant response rating: 100
waterhemp; [2]
  Waterhemp plant response rating: 100
waterhemp; [10]
  Plant response rating, Waterhemp: 100
corn; [5]
  Plant response rating, Corn: 10
corn; [8]
  Plant response rating, Corn: 50
ragweed; [1]
  Ragweed plant response rating: 70
ragweed; [7]
  Ragweed plant response rating: 100
ragweed; [2]
  Ragweed plant response rating: 100
ragweed; [10]
  Plant response rating, Ragweed: 100
